{
  "source": "patent US20210212984A1",
  "about": "“FORMULATION FOR PAIN MANAGEMENT” (Zyus Life Sciences Inc., priority 2019, published 2021)",
  "key": {"[1]": {"target": "T1, human TRPA1 channel (Homo sapiens, UniProt O75762)", "T1 construct": "expressed in transfected cells; host or cells: CHO cells", "T1 sequence (O75762 whole entry)": "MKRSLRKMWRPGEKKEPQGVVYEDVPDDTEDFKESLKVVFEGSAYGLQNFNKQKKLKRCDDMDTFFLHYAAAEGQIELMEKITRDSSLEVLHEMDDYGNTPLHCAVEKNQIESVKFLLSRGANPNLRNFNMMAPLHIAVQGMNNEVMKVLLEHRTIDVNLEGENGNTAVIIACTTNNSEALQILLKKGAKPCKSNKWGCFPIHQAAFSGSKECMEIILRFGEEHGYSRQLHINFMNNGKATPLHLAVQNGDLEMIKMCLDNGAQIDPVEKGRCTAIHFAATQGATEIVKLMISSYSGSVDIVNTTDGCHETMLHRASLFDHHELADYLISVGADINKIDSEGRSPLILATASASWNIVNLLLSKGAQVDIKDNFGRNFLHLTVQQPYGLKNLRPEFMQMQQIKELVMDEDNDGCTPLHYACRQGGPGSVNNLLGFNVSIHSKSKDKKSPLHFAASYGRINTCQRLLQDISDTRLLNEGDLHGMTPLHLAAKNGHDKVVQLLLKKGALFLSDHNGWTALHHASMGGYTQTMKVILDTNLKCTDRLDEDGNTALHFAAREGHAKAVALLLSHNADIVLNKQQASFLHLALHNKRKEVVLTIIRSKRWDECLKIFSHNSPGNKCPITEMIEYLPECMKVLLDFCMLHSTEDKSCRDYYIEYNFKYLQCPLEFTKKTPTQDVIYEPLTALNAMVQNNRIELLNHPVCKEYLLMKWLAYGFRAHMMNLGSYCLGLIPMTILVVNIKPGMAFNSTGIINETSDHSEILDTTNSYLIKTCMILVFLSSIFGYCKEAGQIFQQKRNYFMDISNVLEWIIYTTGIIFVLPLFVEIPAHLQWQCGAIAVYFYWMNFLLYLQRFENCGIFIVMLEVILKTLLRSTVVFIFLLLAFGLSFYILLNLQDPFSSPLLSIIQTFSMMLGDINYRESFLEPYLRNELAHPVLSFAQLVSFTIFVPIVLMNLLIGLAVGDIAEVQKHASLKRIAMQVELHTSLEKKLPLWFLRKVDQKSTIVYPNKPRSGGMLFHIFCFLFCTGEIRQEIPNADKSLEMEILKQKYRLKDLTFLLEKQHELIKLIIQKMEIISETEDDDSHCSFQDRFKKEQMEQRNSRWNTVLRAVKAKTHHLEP", "experiment": "ScreenPatch assay (IonWorks Barracuda), agonist mode, TRPA1 expressed in CHO cells", "format": "cell-based", "conditions": "for EC50: read-out: EC50, CBC CRC", "protocol": "Formulations for pain management were tested for effects on the human TRPA1 channel, expressed in mammalian cells using the ScreenPatch® assay (IonWorks™ Barracuda Based Assay): agonist mode. The data presented confirming a synergistic effect of cannabinoids (CBD:THC:CBC) at the ion channel level.\nTest Articles. The test articles, also referenced herein as test formulations, were evaluated in an 8-point concentration-response format (4 replicate wells/concentration, Table 4A & Table 4B). The test articles were dissolved and initially serially diluted in dimethyl sulfoxide (DMSO). The final dilution was made in extracellular solution. The final DMSO concentration was 0.6% (v/v).\nPositive Control Treatment Groups. Stock solutions of positive control articles were prepared in batches, aliquoted for individual use. The positive control test solutions were prepared fresh on the day of experiment. The final DMSO concentration was 0.6% (v/v). […] Reference antagonist, ruthenium red (0-10 μM), was used for both TRPA1.\nTest System: TRPA1 ionotropic receptors expressed in CHO cells.\nTest Platform: Ionworks Barracuda™\nElectrophysiological Procedures. Intracellular solution (mM): 50 mM CsCl, 90 mM CsF, 2 mM MgCl2, 5 mM EGTA, 10 mM HEPES. Adjusted to pH 7.2 with CsOH. This solution was prepared in batches and stored at room temperature. In preparation for a recording session, the intracellular solution was loaded into the intracellular compartment of the PPC planar electrode.\nExtracellular solution, HB-PS (composition in mM): NaCl, 137; KCl, 1.0; MgCl2, 2; CaCl2, 2; HEPES, 10; Glucose, 10; pH adjusted to 7.4 with NaOH (refrigerated until use). Holding potential: −70 mV, potential during agonist/antagonist application: −70 mV.\nRecording procedure. Extracellular buffer was loaded into the PPC plate wells (11 μL per well). Cell suspension was pipetted into the wells (9 μL per well) of the PPC planar electrode.\nWhole-cell recording configuration was established via patch perforation with membrane currents recorded by on-board patch clamp amplifiers.\nSingle application (scan) protocol was used.\nTest Article Administration. The application consisted of the addition of 20 μL of 2× concentrated test article solution at 10 μL/s (2 second total application time).\nTRPA1 Positive Control—Agonist.\nPositive Control—Antagonist. 0-10 μM Ruthenium Red (8 concentrations, 4 replicates, half log scale)."}, "[2]": {"target": "CB2 receptors (Homo sapiens, UniProt P34972)", "sequence (P34972 whole entry)": "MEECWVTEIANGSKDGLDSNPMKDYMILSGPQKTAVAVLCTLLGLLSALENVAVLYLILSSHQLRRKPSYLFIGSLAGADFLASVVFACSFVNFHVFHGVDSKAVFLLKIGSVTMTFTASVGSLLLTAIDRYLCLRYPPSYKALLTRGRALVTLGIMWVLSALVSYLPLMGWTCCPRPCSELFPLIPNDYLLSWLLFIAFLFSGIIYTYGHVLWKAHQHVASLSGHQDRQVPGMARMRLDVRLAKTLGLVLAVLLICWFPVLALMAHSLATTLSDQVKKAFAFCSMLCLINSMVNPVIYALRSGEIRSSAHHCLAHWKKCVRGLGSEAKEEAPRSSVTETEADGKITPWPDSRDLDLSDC", "conditions": "Shinjyo N 2013; cited from earlier work"}, "[3]": {"target": "CB1 receptors (Homo sapiens, UniProt P21554)", "sequence (P21554 whole entry)": "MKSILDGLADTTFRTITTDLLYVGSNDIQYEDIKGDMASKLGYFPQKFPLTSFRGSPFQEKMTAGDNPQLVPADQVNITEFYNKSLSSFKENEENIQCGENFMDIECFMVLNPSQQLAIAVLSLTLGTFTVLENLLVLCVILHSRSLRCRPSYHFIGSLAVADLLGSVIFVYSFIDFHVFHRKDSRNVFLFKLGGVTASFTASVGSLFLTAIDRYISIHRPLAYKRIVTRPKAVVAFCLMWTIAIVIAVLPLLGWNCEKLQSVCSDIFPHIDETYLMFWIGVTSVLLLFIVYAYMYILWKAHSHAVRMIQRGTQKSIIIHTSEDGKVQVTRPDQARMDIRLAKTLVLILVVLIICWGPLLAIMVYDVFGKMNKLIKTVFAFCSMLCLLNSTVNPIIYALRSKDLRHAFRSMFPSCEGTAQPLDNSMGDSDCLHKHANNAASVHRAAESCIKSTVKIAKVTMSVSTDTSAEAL", "conditions": "Shinjyo N 2013; cited from earlier work"}, "[4]": {"conditions": "CHO, CRC of the article alone, % of 3000 μM Mustard Oil, read-out: EMAX"}, "[5]": {"conditions": "CRC of the article alone, % of 3000 μM Mustard Oil"}, "[6]": {"conditions": "in presence of 0.1 μM CBD + THC"}, "[7]": {"conditions": "in presence of 0.3 μM CBD + THC"}},
  "note": "Values joined by “and” are separate entries in the source; they are usually repeats but may differ in a detail not shown here. Equal entries are not always repeated. Where two headings read alike, the source gives them in different places.",
  "data": [
    {"smiles": "CCCCCc1cc(O)c2c(c1)OC(C)(CCC=C(C)C)C=C2", "note": "(stereo not shown) [CBC, cannabichromene]", "values": [
      {"measurement": "Agonist activity at TRPA1 receptors (in words)", "setting": "[1]", "value": "weak partial agonist activity"},
      {"measurement": "Emax", "setting": "[1]; [4]", "value": "~10", "unit": "%"},
      {"measurement": "Emax", "setting": "[1]; CHO, at near threshold activation by CBD+THC mixture (1 μM each), n=4, read-out: Efficacy (EMAX) of CBC", "value": "16.2 ± 1.3", "unit": "%"},
      {"measurement": "Emax", "setting": "[1]; CHO, in presence of 0.1 μM CBD + THC, % of 3000 μM Mustard Oil, read-out: EMAX, CBC CRC", "value": 10.1, "unit": "%"},
      {"measurement": "Emax", "setting": "[1]; CHO, in presence of 0.3 μM CBD + THC, % of 3000 μM Mustard Oil, read-out: EMAX, CBC CRC", "value": 13.1, "unit": "%"},
      {"measurement": "Emax", "setting": "[1]; CHO, in presence of 1 μM CBD + THC, % of 3000 μM Mustard Oil, read-out: EMAX, CBC CRC", "value": 17.1, "unit": "%"},
      {"measurement": "Emax", "setting": "[1]; CHO, in presence of 3 μM CBD + THC, % of 3000 μM Mustard Oil, read-out: EMAX, CBC CRC", "value": 30.7, "unit": "%"},
      {"measurement": "Emax", "setting": "[1]; CHO, in presence of 10 μM CBD + THC, % of 3000 μM Mustard Oil, read-out: EMAX, CBC CRC", "value": 53.2, "unit": "%"},
      {"measurement": "Emax", "setting": "[1]; CHO, in presence of 30 μM CBD + THC, % of 3000 μM Mustard Oil, read-out: EMAX, CBC CRC", "value": 60.8, "unit": "%"},
      {"measurement": "Emax", "setting": "[1]; CHO, in presence of 100 μM CBD + THC, % of 3000 μM Mustard Oil, read-out: EMAX, CBC CRC", "value": 58.5, "unit": "%"},
      {"measurement": "Emax", "setting": "[1]; CHO, in presence of 300 μM CBD + THC, % of 3000 μM Mustard Oil, read-out: EMAX, CBC CRC", "value": 37.2, "unit": "%"},
      {"measurement": "Hill Slope", "setting": "[1]; CRC of the article alone", "value": "−0.96"},
      {"measurement": "EMIN", "setting": "[1]; [5]", "value": 0.86, "unit": "%"},
      {"measurement": "Emax", "setting": "[1]; [5]", "value": "10.3±1.9% and 10.31%"},
      {"measurement": "Efficacy (EMAX) of CBC", "setting": "[1]; at near threshold activation by CBD+THC mixture (1 μM each), n=4", "value": "16±1", "unit": "%"},
      {"measurement": "Hill Slope, CBC CRC", "setting": "[1]; [6]", "value": "−3.56"},
      {"measurement": "EMIN, CBC CRC", "setting": "[1]; in presence of 0.1 μM CBD + THC, % of 3000 μM Mustard Oil", "value": 0.92, "unit": "%"},
      {"measurement": "EC50", "setting": "[1]; [6]", "value": 54.5, "unit": "µM"},
      {"measurement": "Hill Slope, CBC CRC", "setting": "[1]; [7]", "value": "−1.00"},
      {"measurement": "EMIN, CBC CRC", "setting": "[1]; in presence of 0.3 μM CBD + THC, % of 3000 μM Mustard Oil", "value": 1.42, "unit": "%"},
      {"measurement": "EC50", "setting": "[1]; [7]", "value": 64.1, "unit": "µM"},
      {"measurement": "Hill Slope, CBC CRC", "setting": "[1]; in presence of 1 μM CBD + THC", "value": "−1.00"},
      {"measurement": "EMIN, CBC CRC", "setting": "[1]; in presence of 1 μM CBD + THC, % of 3000 μM Mustard Oil", "value": 2.40, "unit": "%"},
      {"measurement": "EC50", "setting": "[1]; in presence of 1 μM CBD + THC", "value": 26, "unit": "µM"},
      {"measurement": "EMIN, CBC CRC", "setting": "[1]; in presence of 3 μM CBD + THC, % of 3000 μM Mustard Oil", "value": 15.03, "unit": "%"},
      {"measurement": "EMIN, CBC CRC", "setting": "[1]; in presence of 10 μM CBD + THC, % of 3000 μM Mustard Oil", "value": 42.93, "unit": "%"},
      {"measurement": "EMIN, CBC CRC", "setting": "[1]; in presence of 30 μM CBD + THC, % of 3000 μM Mustard Oil", "value": 47.70, "unit": "%"},
      {"measurement": "EMIN, CBC CRC", "setting": "[1]; in presence of 100 μM CBD + THC, % of 3000 μM Mustard Oil", "value": 37.89, "unit": "%"},
      {"measurement": "EMIN, CBC CRC", "setting": "[1]; in presence of 300 μM CBD + THC, % of 3000 μM Mustard Oil", "value": 29.27, "unit": "%"},
      {"measurement": "Ki", "setting": "[2]", "value": "~0.1", "unit": "µM"},
      {"measurement": "concentrations at which it binds to CB1 receptors", "setting": "[3]", "value": "higher than 1 micromolar"}
    ]},
    {"smiles": "CO", "note": "[Methanol]", "values": [
      {"measurement": "Emax", "setting": "[1]; [4]", "value": 3.97, "unit": "%"},
      {"measurement": "EMIN", "setting": "[1]; [5]", "value": 0.95, "unit": "%"}
    ]},
    {"smiles": "C=CCN=C=S", "note": "[Mustard Oil, Allyl isothiocyanate, reference compound]", "values": [
      {"measurement": "Emax at 3000 µM", "setting": "[1]; CHO, CRC of the article alone, % of 3000 μM Mustard Oil", "value": 100, "unit": "%"},
      {"measurement": "Hill Slope", "setting": "[1]; CRC of the article alone", "value": "−1.91"},
      {"measurement": "EMIN", "setting": "[1]; [5]", "value": 1.01, "unit": "%"}
    ]},
    {"smiles": "N.N.N.N.N.N.N.N.N.N.N.N.N.N.[Cl-].[Cl-].[Cl-].[Cl-].[Cl-].[Cl-].[O-2].[O-2].[Ru+3].[Ru+3].[Ru+4]", "note": "[Ruthenium Red, reference compound]", "values": [
      {"measurement": "Hill Slope", "setting": "[1]; CRC of the article alone", "value": 0.85},
      {"measurement": "EMIN", "setting": "[1]; [5]", "value": 0.00, "unit": "%"},
      {"measurement": "Emax", "setting": "[1]; [5]", "value": 47.50, "unit": "%"},
      {"measurement": "IC50", "setting": "[1]; inhibition of TRPA1 receptors, CRC 0-10 μM (footnote: IC50 is shown)", "value": 1.79, "unit": "µM"}
    ]}
  ]
}
